Source: patent US6479493B1, “Methods for treatment of type I diabetes” (Cell Pathways, Inc., priority 2001, dated 2002)
Like-named read-outs stand apart in the source and are kept apart here.

Legend:
[1] = target: T1, cGMP binding sites of the GST-cGB-PDE5 fusion protein (Homo sapiens, UniProt O76074); test: cGMP binding assay with GST-cGB-PDE5 fusion protein; details: for competition with cGMP binding at high concentration: 100 μM compound versus cGMP 2 μM
T1 construct: made in house; host or cells: E. coli BL21 (DE3)
Text: RT-PCR method is used to obtain the cGB domain of PDE5 with forward and reverse primers designed from bovine PDE5A cDNA sequence (McAllister-Lucas L. M. et al, J. Biol. Chem. 268, 22863-22873, 1993) and the selection among PDE 1-10 families. 5′-3′, Inc. kits for total RNA followed by oligo (dT) column purification of mRNA are used with HT-29 cells. […] It is then cloned into pGEX-5X-3 glutathione-S-ransferase (GST) fusion vector (Pharmacia Biotech )with tac promoter, and EcoRI and XhoI cut sites. The fusion vector is then transfected into E. Coli BL21 (DE3) bacteria (Invitrogen). The transfected BL21 bacteria is grown to log phase, and then IPTG is added as an inducer. The induction is carried at 20° C. for 24 hrs. The bacteria are harvested and lysed. The soluble cell lysate is incubated with GSH conjugated Sepharose 4B (GSH-Sepharose 4B). The GST-cGB-pDE5 fusion protein can bind to the GSH-Sepharose beads, and the other proteins are washed off from beads with excessive cold PBS.
Then, the mixture is transferred to Brandel MB-24 cell harvester with GF/B as the filter membrane followed by 2 washes with 10 mL of cold 5 mM potassium buffer(pH 6.8). The membranes are then cut out and transferred to scintillation vials followed by the addition of 1 mL of H2O and 6 mL of Ready Safe™ liquid scintillation cocktail to each vial. The vials are counted on a Beckman LS 6500 scintillation counter.
The quenching by filter membrane or other debris are also calibrated.

native bovine PDE5 = native bovine PDE5 (Bos taurus, UniProt Q28156); details: read-out: Kd of cGMP binding, native bovine PDE5; cited from earlier work
U937 cells = test: apoptosis induction of U937 cells, active caspase 3 indirect immunofluorescence; type: cell-based; details: 24 hours
Protocol: U937 cells (from ATCC Rockville, Md.) were grown in RPMI media supplemented with 5% FCS, glutamine, antibiotic/antimycotic and sodium pyruvate. Total RNA was isolated from two U937 cultures, one treated with 5 nM TPA for 48 hours and one grown in normal media as listed above, using the Rouche High Pure RNA Isolation Kit (cat #1 828 665) as per manufacturers protocol. cDNA was then synthesized from the total RNA using GibcoBRL SuperscriptII (Cat #18064-022) reverse transcriptase as per manufacturers protocol. The resulting cDNA was used as a template for RT-PCR reactions using primer sets specific for PDE2 (forward: […], reverse: […]) or PDE5 (forward: […], reverse: […]). mRNA for PDE2 and 5 were both present in the untreated U937 cells. Upon treatment with TPA, the relative amounts of PDE2 mRNA increased 5 fold. Therefore, U937 cells treated with TPA and driven to differentiate into an activated macrophage like state have elevated levels of PDE2 mRNA (see FIG. 1).
The presence of PDE2 and PDE5 protein within U937 cells was confirmed by indirect immunofluorescence (IIF). U937 cells were cultured as above. Two U937 cultures, one grown in the presence of 5 nM TPA for 48 hours and one grown in normal media were processed. All cultures were collected by centrifugation (Shandon Cytospin, 2 minutes @600 rpm) onto poly-L lysine-coated slides and immediately fixed in fresh 3% paraformaldehyde buffered in PBS for 10 minutes. Adherent cultures were grown on coverslips and fixed as above. Cells were permeablized in 0.2% Triton-100 for 2 minutes. Slides were blocked with blocking buffer (5% goat serum, 5% glycerol, 1% gelatin from cold water fish skin and 0.04% NaN3 in PBS) for 1 hour at room temperature.
Slides were then incubated for 1 hour at 37° C. in a humid chamber with antibodies specific for PDE2 (generated in a sheep against the peptide […]) or PDE5 (generated in sheep against the peptide […]). […]
The level of apoptosis in U937 cells was quantified by scoring 500 consecutive cells for the presence of active caspase 3. […]

SMILES	competition with cGMP in binding to the cGMP binding sites of GST-cGB-PDE5 ([1]; 3H-cGMP 2 μM, 22° C., 1 hour)	other results
CSc1ccc(/C=C2/C(C)=C(CC(=O)O)c3cc(F)ccc32)cc1 [Sulindac sulfide]	None of the PDE5 inhibitors showed any competition with cGMP in binding	
CCCOc1ccccc1-c1nc2nn[nH]c2c(=O)[nH]1 [zaprinast]	None of the PDE5 inhibitors showed any competition with cGMP in binding	
O=c1ccn([C@@H]2O[C@@H]3COP(=O)(O)O[C@H]3[C@H]2O)c(=O)[nH]1 [cUMP, cyclic UMP]	did not compete with cGMP in binding	
Nc1nc2c(ncn2[C@@H]2O[C@@H]3COP(=O)(O)O[C@H]3[C@H]2O)c(=O)[nH]1 [cGMP, cyclic 3′,5′-guanosine monophosphate]		Kd (native bovine PDE5): 1300 nM; Kd ([1]; read-out: Kd of cGMP binding to GST-cGB-PDE5 fusion protein, two cGMP binding sites): 1600 ± 200 nM
CCCc1nn(C)c2c(=O)[nH]c(-c3cc(S(=O)(=O)N4CCN(C)CC4)ccc3OCC)nc12 [sildenafil]		levels of apoptosis (active caspase 3) (U937 cells; 0.3 nM): No increase in the levels of apoptosis compared to normal background was observed
O=c1[nH]cnc2c1ncn2[C@@H]1O[C@@H]2COP(=O)(O)O[C@H]2[C@H]1O [Cyclic IMP]		competition with cGMP binding at high concentration [1]: can partially compete with cGMP
CCCCOC1C2OP(=O)(O)OCC2OC1n1cnc2c(=O)[nH]c(N)nc21 (stereo not drawn) [2′-O-butyl-cGMP]	did not compete with cGMP in binding	
CC1=C(CC(=O)O)c2cc(F)ccc2/C1=C\c1ccc(S(C)(=O)=O)cc1 [exisulind]	None of the PDE5 inhibitors showed any competition with cGMP in binding	
Nc1nc2c(nc(Br)n2[C@@H]2O[C@@H]3COP(=O)(O)O[C@H]3[C@H]2O)c(=O)[nH]1 [Example 8-bromo-cGMP, 8-bromo-cGMP]		competition with cGMP binding at high concentration [1]: can partially compete with cGMP
O=C([O-])C1CCN(c2nc(NCc3ccc4c(c3)OCO4)c3cc(Cl)ccc3n2)CC1.[Na+] [Example E4021]	None of the PDE5 inhibitors showed any competition with cGMP in binding	
CCCCOC1C2OP(=O)(O)OCC2OC1n1cnc2c(N)ncnc21 (stereo not drawn) [2′-O-butyl-cAMP]	did not compete with cGMP in binding	
COc1ccc(C2CNC(=O)C2)cc1OC1CCCC1 (stereo not drawn) [rolipram]		levels of apoptosis (active caspase 3) (U937 cells; 0.5 uM): No increase in the levels of apoptosis compared to normal background was observed
Nc1ccn([C@@H]2O[C@@H]3COP(=O)(O)O[C@H]3[C@H]2O)c(=O)n1 [cCMP]	did not compete with cGMP in binding	
Nc1ncnc2c1ncn2[C@@H]1O[C@@H]2COP(=O)(O)O[C@H]2[C@H]1O [Cyclic AMP]		competition with cGMP in binding to the cGMP binding sites of GST-cGB-PDE5 [1]: did not compete with cGMP in binding
